{"source": "patent US20040141992A1", "about": "“Desensitizers” (priority 2001, published 2004)", "key": {"healthy volunteers": {"system": "healthy volunteers", "assay": "Allergic skin test (intradermal injection, flare size) in healthy volunteers", "assay_type": "in vivo, human", "details": "for positive skin reaction, number of cases: among 41 or 42 cases of healthy volunteers", "procedure": "Therefore, it was investigated whether an allergic reaction to a peptide derived from the above self-antigen would also be observed in healthy volunteers. Skin tests were carried out with respect to self-derived tumor rejection antigen peptides capable of inducing cytotoxic T cells for 42 cases of healthy volunteers whose age ranges from 19 years old to 54 years old (mean age 29.2 years). For testing an allergic skin reaction, 10 μg of each peptide (50 μl volume) was intradermally injected, and evaluation was carried out 15 minutes after the injection. The results are summarized in Tables 1 to 4, wherein ‘NT’ and ‘S. T’ mean ‘not tested’ and ‘skin test’, respectively. −: longest diameter (D) of flare […] +: 10 mm≦D<30 mm ++: 30 mm≦D<50 mm +++: 50 mm≦D"}, "cancer patients [1]": {"system": "cancer patients", "assay": "Skin test by pre-vaccination before phase I clinical trial in cancer patients"}, "[2]": {"system": "skin reaction and serum IgE level against SART3315", "details": "human, in vivo", "procedure": "The phase I clinical test using SART3109 was carried out on a colon cancer patient whose skin reaction against SART3315 was positive. With respect to the patient, a skin reaction against SART3109 was negative, and a specific IgE level in serum against SART3315 and SART3109 was low. […] Although a SART3109-specific IgE level in serum was increased by administration of SART3109, skin reactions before and after administration of the same were negative (FIG. 1F). Namely, an allergic reaction and the specific IgE level in serum against SART3315 were reduced by administration of SART3109."}, "[3]": {"system": "skin reaction and serum IgE level against CypB84", "assay": "Phase I clinical trial of peptide vaccine using CypB91 in lung cancer patient", "assay_type": "in vivo, human", "procedure": "The phase I clinical trial of a peptide vaccine using CypB91 was carried out on a lung cancer patient whose skin reaction and serum IgE level against CypB84 were positive in the above allergic skin test. The skin reaction and serum IgE level against CypB91 of the patient were negative. […] A skin reaction and a serum […] level against CypB91 even after 3 times administration of CypB91 were substantially the same as those before administration, i.e., negative (FIG. 1B)."}, "cancer patients [4]": {"system": "cancer patients", "details": "human, in vivo"}, "[5]": {"system": "skin reaction and serum IgE level against ART413", "details": "human, in vivo", "procedure": "The phase I clinical trial with ART475 was carried out on an ovarian cancer patient whose skin reaction against ART413 was positive. With respect to the patient, a skin reaction against ART475 was negative, and a specific IgE level in serum against ART413 and ART475 was low. […] Namely, an allergic reaction and a specific IgE level in serum against ART413 were reduced by administration of ART475."}, "[6]": {"details": "positive donors / donors tested, healthy volunteers"}}, "note": "Like-named read-outs stand apart in the source and are kept apart here. No end group written: not given here."}
{"substance": "AFLRHAAL [ART413, AFLRHAAL]", "values": [{"measurement": "positive skin reaction, percent of healthy volunteers", "setting": "healthy volunteers; healthy volunteers", "value": 95, "unit": "%"}, {"measurement": "S. T positive rate", "setting": "healthy volunteers; [6]", "value": "39/41"}, {"measurement": "allergic skin reaction", "setting": "cancer patients [1]; ovarian cancer patients", "value": "elicited an allergic skin reaction"}]}
{"substance": "AYIDFEMKI [SART3315, AYIDFEMKI]", "values": [{"measurement": "positive skin reaction, number of cases", "setting": "healthy volunteers", "value": 18, "unit": "cases"}, {"measurement": "positive skin reaction, percent of healthy volunteers", "setting": "healthy volunteers; healthy volunteers", "value": 44, "unit": "%"}, {"measurement": "S. T positive rate", "setting": "healthy volunteers; [6]", "value": "18/41"}]}
{"substance": "AYDFLYNYL [SART2161, AYDFLYNYL]", "values": [{"measurement": "S. T (skin test, size of inflammatory flare)", "setting": "healthy volunteers; individual healthy donors, 10 μg peptide intradermally, evaluated 15 minutes after injection", "value": "− (longest diameter (D) of flare <30 mm)"}, {"measurement": "S. T positive rate", "setting": "healthy volunteers; [6]", "value": "0/42"}]}
{"substance": "VYDYNCHVDL [SART3109, VYDYNCHVDL]", "values": [{"measurement": "positive skin reaction, number of cases", "setting": "healthy volunteers", "value": 7, "unit": "cases"}, {"measurement": "positive skin reaction, percent of healthy volunteers", "setting": "healthy volunteers; healthy volunteers", "value": 17, "unit": "%"}, {"measurement": "S. T positive rate", "setting": "healthy volunteers; [6]", "value": "7/42"}, {"measurement": "SART3109-specific IgE level in serum", "setting": "[2]", "value": "increased"}, {"measurement": "skin reactions against SART3109", "setting": "[2]", "value": "negative"}]}
{"substance": "CypB91-2F-Y: peptide obtained by replacing phenylalanine at the 2nd position of CypB91 with tyrosine (DYMIQGGDF; Designed peptide based on the peptide consisting of 9 amino acid residues from the 91st residue to the 99th residue of cyclophillin B)", "values": [{"measurement": "inhibition of skin reaction and specific IgE level against CypB84, number of cases", "setting": "[3]; among 10 cases tested, vaccination of CypB91 or CypB91-2F-Y", "value": 9, "unit": "cases"}]}
{"substance": "DFMIQGGDF [CypB91, DFMIQGGDF]", "values": [{"measurement": "S. T positive rate", "setting": "healthy volunteers; human, in vivo", "value": "0/42"}, {"measurement": "skin reaction against CypB91", "setting": "[3]; after 3 times administration of CypB91", "value": "negative"}]}
{"substance": "SYTRLFLIL [SART2899, SYTRLFLIL]", "values": [{"measurement": "positive skin reaction, number of cases", "setting": "healthy volunteers", "value": 10, "unit": "cases"}, {"measurement": "positive skin reaction, percent of healthy volunteers", "setting": "healthy volunteers; healthy volunteers", "value": 24, "unit": "%"}, {"measurement": "S. T positive rate", "setting": "healthy volunteers; [6]", "value": "10/41"}]}
{"substance": "KFHRVIKDF [CypB84, KFHRVIKDF]", "values": [{"measurement": "positive skin reaction, number of cases", "setting": "healthy volunteers", "value": 40, "unit": "cases"}, {"measurement": "positive skin reaction, percent of healthy volunteers", "setting": "healthy volunteers; healthy volunteers", "value": 95, "unit": "%"}, {"measurement": "S. T positive rate", "setting": "healthy volunteers; [6]", "value": "40/42"}, {"measurement": "immediate hypersensitivity skin reactions elicited", "setting": "cancer patients [1]; pre-vaccinated lung-cancer patients", "value": "eight of ten"}]}
{"substance": "CypB84F-Y: peptide obtained by partially modifying CypB84: phenylalanine (F) at the 2nd position replaced with tyrosine (Y) (KYHRVIKDF; Peptide consisting of 9 amino acid residues from the 84th residue to the 92nd residue of cyclophillin B)", "values": [{"measurement": "immediate hypersensitivity skin reactions elicited", "setting": "cancer patients [4]", "value": "eight of ten"}]}
{"substance": "DYPSLSATDI [ART475, DYPSLSATDI]", "values": [{"measurement": "S. T positive rate", "setting": "healthy volunteers; [6]", "value": "1/41"}, {"measurement": "ART475-specific IgE level in serum", "setting": "[5]", "value": "gradually increased"}, {"measurement": "skin reaction against ART475", "setting": "[5]", "value": "negative"}]}
